Entries after “also recorded” stand apart in the source; their conditions may differ.
How the values were obtained:
ER = target: T1, ER (Homo sapiens, UniProt P03372); experiment: Hormone-dependent growth with inteinless MBP-ER-TS fusion
T1 sequence (P03372 301-553): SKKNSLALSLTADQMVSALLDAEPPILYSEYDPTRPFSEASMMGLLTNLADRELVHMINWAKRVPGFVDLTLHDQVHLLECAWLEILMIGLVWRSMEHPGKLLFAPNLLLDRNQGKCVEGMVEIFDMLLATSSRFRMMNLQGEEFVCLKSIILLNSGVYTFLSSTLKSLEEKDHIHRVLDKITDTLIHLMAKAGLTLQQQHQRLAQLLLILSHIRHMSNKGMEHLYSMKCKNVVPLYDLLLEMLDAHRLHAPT

[1] = target: T2, human estrogen receptor alpha ligand-binding domain (Homo sapiens, UniProt P03372); experiment: Detection of antagonism: pMIT::ER* cells grown in the presence of E2 plus increasing concentrations of test compound; format: cell-based; conditions: 10 micromolar E2, liquid thymineless medium, 34 degrees Celsius, OD600 at 15 hours
T2 construct: expressed in transfected cells; host or cells: E. coli D1210(delta)thyA carrying pMIT::ER*
T2 sequence (P03372 301-553): T1 sequence (P03372 301-553)
Description: FIG. 4 is a graph showing antagonism of estrogen agonists and antagonists. […] Relative cell growth was determined by OD600 at 15 hours in 5 milliliter cultures of liquid thymineless medium at 34 degrees Celsius.
(§1) All experiments were carried out at least in duplicate.

[2] = target: T3, human thyroid hormone receptor beta ligand-binding domain (Homo sapiens, UniProt P10828); experiment: Paper disk growth test of cells harboring pMIT::TR* on thymineless agar plates; format: cell-based; conditions: 30 degrees Celsius, approximately 50 hours, disks saturated in 10 millimolar solutions
T3 construct: expressed in transfected cells; host or cells: E. coli D1210(delta)thyA carrying pMIT::TR*
T3 sequence (P10828 203-461): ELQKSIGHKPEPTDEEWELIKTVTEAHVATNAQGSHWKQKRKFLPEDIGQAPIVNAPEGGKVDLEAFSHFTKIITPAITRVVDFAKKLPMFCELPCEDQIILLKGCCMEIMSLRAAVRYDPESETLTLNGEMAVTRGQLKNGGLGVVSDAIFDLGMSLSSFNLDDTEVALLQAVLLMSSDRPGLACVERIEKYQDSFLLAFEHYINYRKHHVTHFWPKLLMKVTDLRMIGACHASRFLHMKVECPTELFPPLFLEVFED
Description: (§2) FIG. 2 consists of FIGS. 2A, 2B, 2C, and 2D. FIG. 2A is a graph that depicts ligand effects on the growth phenotypes of E. coli D1210(delta)thyA cells carrying the pMIT::ER* vector in 50 milliliter cultures of liquid thymineless medium at 34 degrees Celsius. […] Varying concentrations of estrogen were dissolved in dimethylsulfoxide to allow precise control of dosing. Experiments were carried out in duplicate and errors bars represent one standard deviation from the mean value. FIG. 2C is a graph that depicts ligand effects on the growth phenotypes of cells harboring pMIT::TR* in 50 milliliter cultures of liquid thymineless medium at 34 degrees Celsius. FIG. 2D is an image that depicts ligand effects on the growth phenotypes of cells harboring pMIT::TR* and incubated on thymineless agar plates at 30 degrees Celsius for approximately 50 hours. […] In the experiment corresponding to FIG. 2D, the paper disks applied were allowed to saturate in 10 millimolar solutions of estrogen and thyroid hormone prior to applying them to the medium.
In this case a lawn of cells was plated onto thymineless medium and exposed to small paper disks impregnated with either estrogen or thyroid hormone.

[3] = target: T2, human estrogen receptor alpha ligand-binding domain; experiment: Growth phenotype of E. coli D1210(delta)thyA cells carrying pMIT::ER* in liquid thymineless medium; format: cell-based; conditions: 34 degrees Celsius, ligand 10 micromolar
Description: as §2, §1

[4] = target: T3, human thyroid hormone receptor beta ligand-binding domain; experiment: Growth phenotype of E. coli D1210(delta)thyA cells carrying pMIT::TR* in liquid thymineless medium; format: cell-based; conditions: 34 degrees Celsius, ligand 10 micromolar
Description: as §2, §1

behaviour (agonist/antagonist) with inteinless fusion (ER)	effect on cell growth when combined with estrogen agonist [1]	Compound	colony formation around ligand-impregnated paper disk [2]	ligand effect on cell growth [3]	ligand effect on cell growth [4]
estrogen super-agonist	inhibitory effects	4-hydroxytamoxifen			
		17-beta-estradiol [E2]	no colonies could be observed		
		N[C@@H](Cc1ccc(Oc2cc(I)c(O)c(I)c2)c(I)c1)C(=O)O [T3, 3,3′,5′-triiodo-L-thyronine]	clear colonies were observed	insensitive; also recorded: enhance growth only in cell cultures expressing the TR fusion	able to grow only in the presence; also recorded: able to enhance growth
		CC(=O)[C@H]1CC[C@H]2[C@@H]3CCC4=CC(=O)CC[C@]4(C)[C@H]3CC[C@]12C [progesterone]		no effect on cell growth	no effect on cell growth
